This note sets out measurements from patent publication US8993564B2, “7-azaindole derivatives suitable for treatment of cancers” (Merck Patent GmbH, priority 2011, dated 2015).

Each structure is given as a SMILES string.

Broadly, the melting point is the temperature, or range, at which the solid turns liquid.

The first data set concerns the target T1, PDK1 (Homo sapiens, UniProt O15530).
T1 construct: His6 (N)
T1 sequence (O15530 51-556 limits assumed): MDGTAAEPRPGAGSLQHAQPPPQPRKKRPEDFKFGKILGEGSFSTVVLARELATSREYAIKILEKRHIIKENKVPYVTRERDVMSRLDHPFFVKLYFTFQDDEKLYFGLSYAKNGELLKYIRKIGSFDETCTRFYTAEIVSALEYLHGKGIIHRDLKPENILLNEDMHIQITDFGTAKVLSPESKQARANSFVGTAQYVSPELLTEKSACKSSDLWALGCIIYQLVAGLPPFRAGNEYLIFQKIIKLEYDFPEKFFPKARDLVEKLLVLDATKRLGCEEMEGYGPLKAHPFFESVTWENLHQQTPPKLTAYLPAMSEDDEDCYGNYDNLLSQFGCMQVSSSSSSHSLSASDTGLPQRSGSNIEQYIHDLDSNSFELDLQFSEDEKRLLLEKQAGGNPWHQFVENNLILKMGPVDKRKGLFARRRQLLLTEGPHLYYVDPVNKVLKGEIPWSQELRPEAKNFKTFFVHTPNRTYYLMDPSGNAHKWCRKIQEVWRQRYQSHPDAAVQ
The data set is described as follows: Test for the inhibition of PDK1 (flashplate, 33P-ATP), enzymatic. In kind it is biochemical. The following applies: prior art compounds vs compounds according to the invention. The protocol: 4.0 Test for the Inhibition of PDK1
The experimental batches are carried out in a flashplate system with 384 wells/microtitration plate.
In each case, the PDK1 sample His6-PDK1(1-50)(3.4 nM), the PDK1 substrate biotin-bA-bA-[…] (400 nM), 4 μM ATP (with 0.2 μCi of ^33P-ATP/well) and the test substance in 50 μl of conventional experimental solution per well are incubated at 30° C. for 60 min. The test substances are employed in corresponding concentrations (if desired in a dilution series). The control is carried out without test substance. The reaction is stopped using standard methods and washed. The activity of the kinase is measured via the incorporated radioactivity in top count. In order to determine the non-specific kinase reaction (blank value), the experimental batches are carried out in the presence of 100 nM staurosporine.
The radioactivity (decompositions per minute) of the blank value (no use of test substance in the presence of staurosporine) is subtracted from all other radioactivity values. The controls (kinase activity without test substance) are set equal to 100 percent and all other radioactivity values (after subtracting the blank value) are expressed set in relation thereto (for example in % of the control).
IC50 values (50% inhibition) are determined with the aid of statistics programmes, such as, for example, RS1.
With `c1cncc(CNc2nnc(-c3c[nH]c4ncccc34)o2)c1` [Compound 88, Pyridin-3-ylmethyl-[5-(1H-pyrrolo-[2,3-b]pyridin-3-yl)-1,3,4-oxadiazol-2-yl]amine], the “inhibition of PDK1 (enzymatic), activity compared with the compounds according to the invention” value is “lower activity”.
Take `COc1cc(Nc2nnc(-c3c[nH]c4ncccc34)o2)cc(OC)c1` [Compound 89, (3,5-Dimethoxyphenyl)-[5-(1H-pyrrolo[2,3-b]pyridin-3-yl)-1,3,4-oxadiazol-2-yl]amine]: the “inhibition of PDK1 (enzymatic), activity compared with the compounds according to the invention” value is “lower activity”.
The same measure, in the same setting: then `COc1cccc(CNc2nnc(-c3c[nH]c4ncc(-c5cn[nH]c5)cc34)o2)c1` [Compound 90, (3-Methoxybenzyl)-{5-[5-(1H-pyrazol-4-yl)-1H-pyrrolo [2,3-b]pyridin-3-yl]-1,3,4-oxadiazol-2-yl}amine], with “lower activity”.
Take `COc1cccc(CNc2nnc(-c3c[nH]c4ncccc34)o2)c1` [Compound 95, (3-Methoxybenzyl)-[5-(1H-pyrrolo-[2,3-b]pyridin-3-yl)-1,3,4-oxadiazol-2-yl]amine]: the “inhibition of PDK1 (enzymatic), activity compared with the compounds according to the invention” value is reported as “lower activity”.

System in the next data set: not given
Experiment: not given
Details: not given
As for `Cn1cc(-c2cnc3[nH]cc(-c4nnc(Nc5ccccc5F)o4)c3c2)cn1` [Compound 60], the melting point was in the range of 295 to 297 °C.
Still for that read-out and setting: as for `CCOc1ccccc1Nc1nnc(-c2c[nH]c3ncc(-c4cnn(C)c4)cc23)o1` [Compound 62, (2-Ethoxyphenyl)-{5-[5-(1-methyl-1H-pyrazol-4-yl)-1H-pyrrolo[2,3-b]-pyridin-3-yl]-1,3,4-oxadiazol-2-yl}-amine], the figure is 274 to 275 °C; as for `COc1ccccc1CNc1nnc(-c2c[nH]c3ncc(-c4cnn(C)c4)cc23)o1` [Compound 63, (2-Methoxybenzyl)-{5-[5-(1-methyl-1H-pyrazol-4-yl)-1H-pyrrolo[2,3-b]-pyridin-3-yl]-1,3,4-oxadiazol-2-yl}-amine], 253 to 254 °C.
On the same count and under the same terms, as for `Cn1cc(-c2cnc3[nH]cc(-c4nnc(Nc5ccccc5)o4)c3c2)cn1` [Compound 75, {5-[5-(1-Methyl-1H-pyrazol-4-yl)-1H-pyrrolo[2,3-b]pyridin-3-yl]-1,3,4-oxadiazol-2-yl}phenylamine], the figure is 324 to 326 °C; as for `Cn1cc(-c2cnc3[nH]cc(-c4nnc(NCc5ccc6c(c5)OCO6)o4)c3c2)cn1` [Compound 82, Benzo-1,3-dioxol-5-ylmethyl-{5-[5-(1-methyl-1H-pyrazol-4-yl)-1H-pyrrolo[2,3-b]pyridin-3-yl]-1,3,4-oxadiazol-2-yl}amine], 281 to 283 °C.
